In the NIST ThermoML archive (doi:10.1021/acs.jced.5b00552):
Numbers after ± are expanded uncertainties.

Assay: xn = mol fraction of the nth substance listed
Conditions: 100 kPa, Liquid, Vibrating tube method

Cc1ncc(CO)c(CO)c1O.Cl [5-hydroxy-6-methyl-3,4-pyridinedimethanol hydrochloride] + O
Conditions | mass density [kg/m3]
293.15 K, x1 = 0.01626 | 1093.5 ± 6.3
298.15 K, x1 = 0.01886 | 1104.7 ± 6.4
303.15 K, x1 = 0.02222 | 1111 ± 6.5
308.15 K, x1 = 0.02522 | 1120.8 ± 6.6
313.15 K, x1 = 0.02666 | 1133.3 ± 7
318.15 K, x1 = 0.02818 | 1141.5 ± 6.8
323.15 K, x1 = 0.0329 | 1154.6 ± 7.1
